Measured values as given in PubChem BioAssay AID651779 (The Scripps Research Institute Molecular Screening Center, 2012).
The source made the active and inactive calls.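 How the source made its calls: active means cytotoxic to HEK293 cells with IC50 at or below 10 µM; inactive means IC50 above 10 µM.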

Test system: HEK293 viability, CellTiter-Glo ATP luminescence
Assay: viability loss in HEK293 cells – cell-based, luminescence, dose response, cytotoxicity control for SRC3 inhibitor project, late-stage follow-up (AID 651779)

Compound | IC50
Cc1cc(N=c2c([N+](=O)[O-])nn(-c3ccc4c(c3)OCCO4)n2O)ccc1Br | > 35.9 µM (inactive)
O=C(Nc1nc2ccccc2s1)C1c2ccccc2Oc2ccccc21 | > 35.9 µM (inactive)
O=[N+]([O-])c1nn(-c2ccc3c(c2)OCCO3)n(O)c1=Nc1ccc(Cl)cc1 | > 35.9 µM (inactive)
CC(=O)N1CCN(c2ncnc3ccccc23)CC1 | > 35.9 µM (inactive)
Cc1ccc(/C=C2\SC(=S)N(CCCC(=O)NC3CCCC3)C2=O)cc1 | > 35.9 µM (inactive)
COc1cc(C2c3cc4c(cc3C(OC3OC5COC(c6cccs6)OC5C(O)C3O)C3COC(=O)C23)OCO4)cc(OC)c1O (stereo unspecified) | 24 µM (inactive)
S=C(Nc1ccccc1)Nc1ccc(OCc2ccc(Cl)cc2Cl)cc1 | > 35.9 µM (inactive)
CCOC(=O)C(=CNc1ccc(NC2=NCC(C)S2)cc1)C(=O)OCC (stereo unspecified) | > 35.9 µM (inactive)
CC(=O)/C(N=Nc1ccc2c(c1)OCCO2)=C(/C)O | > 35.9 µM (inactive)
CC(C)N(c1ccccc1)c1ccc(NC(=O)CCl)cc1 | 0.441 µM
CCCCC(=O)Nc1cccn2ncnc12 | > 35.9 µM (inactive)
O=C(NC(NC(=S)N1CCOCC1)C(Cl)(Cl)Cl)c1ccc(Cl)cc1 (stereo unspecified) | > 35.9 µM (inactive)
Cc1ccc(OCC(=O)c2cc(C)n(Cc3cccs3)c2C)c([N+](=O)[O-])n1 | > 35.9 µM (inactive)
CCC(=O)N1CCN(c2ccnc3cc(Cl)ccc23)CC1 | > 35.9 µM (inactive)
Cc1c(Cl)cccc1N=c1c([N+](=O)[O-])nn(-c2ccc3c(c2)OCCO3)n1O | > 35.9 µM (inactive)
COc1ccc(/C=C2/SC(=S)N(CCC(=O)O)C2=O)cc1 | > 35.9 µM (inactive)
Cc1ccc(/C=C2/SC(=S)N(CCCC(=O)Nc3ccc(O)cc3)C2=O)cc1 | > 35.9 µM (inactive)
NC(=S)NN=C1CCSc2ccc(Cl)cc21 | 31.4 µM (inactive)
Cc1cc(C)cc(N=c2c([N+](=O)[O-])nn(-c3ccc4c(c3)OCCO4)n2O)c1 | > 35.9 µM (inactive)
CC(C)n1c(SCC(=O)Nc2nc3c(s2)CCCC3)nc2c1c(=O)n(C)c(=O)n2C | 33.6 µM (inactive)
CCOc1ccc(/C=C2\SC(=S)N(CCCC(=O)NCCCN3CCOCC3)C2=O)cc1 | > 35.9 µM (inactive)
O=C(O)CN1C(=O)/C(=C\c2ccccc2OCc2ccc(Cl)cc2Cl)SC1=S | > 35.9 µM (inactive)
CN(C)c1ccc(CNC(=O)CCNS(=O)(=O)c2cc(Br)cnc2N)cc1 | > 35.9 µM (inactive)
O=C(COC(=O)c1ccc[nH]c1=O)Nc1ccc(N2CCCCC2)cc1 | > 35.9 µM (inactive)
O=[N+]([O-])c1nn(-c2ccc3c(c2)OCCO3)n(O)c1=Nc1ccccc1 | > 35.9 µM (inactive)
O=C(Nc1cccnc1)c1ccc(C(=O)Nc2cccnc2)cc1 | > 35.9 µM (inactive)

Compound | IC50
Cc1ccc(N=c2c([N+](=O)[O-])nn(-c3ccc4c(c3)OCCO4)n2O)c(Cl)c1 | > 35.9 µM (inactive)
O=C(CCl)NC(Cc1ccccc1)c1ccccc1 (stereo unspecified) | 22.3 µM (inactive)
Cc1cccc(NC(=O)c2cc(Cl)ccc2[N+](=O)[O-])c1 | > 35.9 µM (inactive)
Cc1cc(/C=C2\Cc3ccccc3C2=O)c(C)n1-c1ccccc1 | > 35.9 µM (inactive)
c1ccc(-c2nnc(-c3ccccn3)nc2NC2CCCCC2)cc1 | > 35.9 µM (inactive)
Cc1ccc(N=c2c([N+](=O)[O-])nn(-c3ccc4c(c3)OCCO4)n2O)cc1F | > 35.9 µM (inactive)
Cc1nn(CC(=O)N2CCN(c3cccc(C(F)(F)F)c3)CC2)c(=O)c2cccn12 | > 35.9 µM (inactive)
Cc1c(CC(=O)NCCCC(=O)O)c(=O)oc2cc3c(cc12)CCC(C)(C)O3 | > 35.9 µM (inactive)
COc1cc2c(cc1OC)C(NC(=O)C(F)(F)F)CNC2=O (stereo unspecified) | 9.84 µM
Cc1ccc(OCC(=O)c2cc(C)n(-c3ccccc3)c2C)c([N+](=O)[O-])n1 | > 35.9 µM (inactive)
CCc1ccc(N=c2c([N+](=O)[O-])nn(-c3ccc4c(c3)OCCO4)n2O)cc1 | > 35.9 µM (inactive)
O=C(CCCc1nc(-c2ccccc2Cl)no1)NC1CCCC1 | > 35.9 µM (inactive)
O=C(CCl)N1N=C(c2ccco2)CC1c1cccs1 (stereo unspecified) | 2.9 µM
O=C(CCl)N1N=C(c2ccco2)CC1c1ccco1 (stereo unspecified) | 5.77 µM
O=C(Nc1nc(-c2ccccn2)cs1)c1cccc(S(=O)(=O)N2CCOCC2)c1 | > 35.9 µM (inactive)
S=C(c1ccc(-c2ccccc2)cc1)N1CCOCC1 | > 35.9 µM (inactive)
O=C1CCC2S/C(=C/Nc3ccc(C(F)(F)F)cc3)C(=O)N12 (stereo unspecified) | > 35.9 µM (inactive)
Cc1c(/C(O)=C2/C(=O)C(=O)N(Cc3cccnc3)C2c2ccccn2)cnn1-c1ccccc1 (stereo unspecified) | > 35.9 µM (inactive)
O=[N+]([O-])c1cccc2c1ccc1ncccc12 | > 35.9 µM (inactive)
CCc1ccc(/C=C2\SC(=S)N(CCCC(=O)NCCCN3CCOCC3)C2=O)cc1 | 17.9 µM (inactive)
COC(=O)c1c(C)n(-c2ccc(OC)cc2)c2ccc(O)cc12 | > 35.9 µM (inactive)
COc1cc(N=c2c([N+](=O)[O-])nn(-c3ccc4c(c3)OCCO4)n2O)cc(OC)c1 | 25.6 µM (inactive)
NC(=O)c1sc2nc3c(c(-c4ccco4)c2c1N)CCC3 | > 35.9 µM (inactive)
NS(=O)(=O)c1ccc(Nc2nc(-c3cccnc3)cs2)cc1 | > 35.9 µM (inactive)
Cn1nc(C(F)(F)F)c(C#N)c1N1CCN(c2ccc(F)cc2)CC1 | 28.3 µM (inactive)
